From patent US12714686B2, “N-propargylglycine: a unique inhibitor of proline dehydrogenase with brain-enhancing mitohormesis properties capable of mitigating the pathogenesis of neurodegenerative disorders” (Buck Institute for Research on Aging, priority 2020, dated 2026)
Entries after “also recorded” stand apart in the source; their conditions may differ. One block for each molecule: values may come before it.

How the values were obtained:
[1] = system: PRODH expressing mammalian cell systems; experiment: UPRmt activation and mitohormesis induction in PRODH expressing mammalian cell systems; format: cell-based; settings: all PRODH expressing mammalian cell systems studied to date
[2] = target: T1, proline dehydrogenase (PRODH) (Homo sapiens, UniProt O43272); experiment: PRODH enzyme inhibition; format: biochemical
T1 sequence (O43272 1-600): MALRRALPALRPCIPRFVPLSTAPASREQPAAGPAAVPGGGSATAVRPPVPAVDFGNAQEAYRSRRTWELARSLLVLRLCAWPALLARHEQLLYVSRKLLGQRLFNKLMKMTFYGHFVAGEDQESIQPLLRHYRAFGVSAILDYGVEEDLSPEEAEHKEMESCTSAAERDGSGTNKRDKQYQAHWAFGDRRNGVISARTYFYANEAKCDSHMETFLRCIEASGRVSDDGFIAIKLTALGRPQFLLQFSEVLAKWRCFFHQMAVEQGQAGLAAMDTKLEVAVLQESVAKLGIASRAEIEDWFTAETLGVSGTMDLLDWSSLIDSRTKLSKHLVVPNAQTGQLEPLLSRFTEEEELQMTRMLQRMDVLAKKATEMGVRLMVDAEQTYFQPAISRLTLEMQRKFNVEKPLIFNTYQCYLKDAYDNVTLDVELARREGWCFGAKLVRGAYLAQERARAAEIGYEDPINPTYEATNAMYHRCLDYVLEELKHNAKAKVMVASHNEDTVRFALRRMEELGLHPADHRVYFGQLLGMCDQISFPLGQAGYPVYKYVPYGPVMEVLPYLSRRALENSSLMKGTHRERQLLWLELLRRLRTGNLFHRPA

PRODH [3] = target: T2, PRODH (Mus musculus, UniProt Q9WU79); experiment: Study A: oral N-PPG in wildtype mice, whole brain PRODH protein (western blot) and mRNA; format: in vivo; settings: whole brain lysates
T2 construct: Western blots of whole brain lysates from wildtype B6/CBA mice; from tissue; R6/2 Htt-mut in B6/CBA background
T2 sequence (Q9WU79 1-599): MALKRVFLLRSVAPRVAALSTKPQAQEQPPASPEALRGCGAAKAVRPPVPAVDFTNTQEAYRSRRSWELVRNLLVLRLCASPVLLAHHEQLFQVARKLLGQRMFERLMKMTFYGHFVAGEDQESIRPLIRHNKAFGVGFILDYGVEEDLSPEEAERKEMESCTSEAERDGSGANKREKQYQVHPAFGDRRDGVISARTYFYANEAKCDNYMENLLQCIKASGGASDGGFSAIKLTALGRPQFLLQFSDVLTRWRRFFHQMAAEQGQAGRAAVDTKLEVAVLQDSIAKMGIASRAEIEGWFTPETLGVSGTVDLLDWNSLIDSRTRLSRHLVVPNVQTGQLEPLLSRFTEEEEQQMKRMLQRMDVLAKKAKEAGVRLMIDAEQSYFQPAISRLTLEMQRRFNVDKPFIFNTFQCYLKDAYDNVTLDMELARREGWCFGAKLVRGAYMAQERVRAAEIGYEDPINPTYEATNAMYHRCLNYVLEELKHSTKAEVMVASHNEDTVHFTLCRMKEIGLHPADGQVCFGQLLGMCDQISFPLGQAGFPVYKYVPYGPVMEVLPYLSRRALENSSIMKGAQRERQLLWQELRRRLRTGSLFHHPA
Experimental: (§1) For Study A, beginning at 5 weeks of age, seven male and female mice (WT) were daily administered oral N-PPG over a graduated dose range of 50 mg/kg to 200 mg/kg for 9 days, while 4 other age- and sex-matched control mice (W) were given only daily saline.
(§2) For Study B, beginning at 5-weeks of age, four male and female Htt-mut mice (HT) were administered oral N-PPG at 50 mg/kg daily for 9 days, while four other age- and sex-matched Htt-mut mice (H) were given only daily saline. All Study A and B mice were sacrificed within 4 h of receiving their last treatment (week 7). […] Excised brains were snap frozen in liquid nitrogen for latter cryopulverization, extraction and analysis of total brain RNA and protein.

YME1L1 [4] = experiment: Study A: brain UPRmt protease YME1L1 mRNA and protein expression; format: in vivo, mouse
Experimental: as §1, §2

HSP-60 = experiment: Study A: brain chaperone HSP-60 transcripts by RT-PCR; format: in vivo; settings: single mouse brain, 200 mg/kg oral N-PPG, 9 days
Experimental: as §1, §2

[5] = system: mouse brain transcriptome; experiment: Study A: whole brain transcriptome (RNAseq) and pathway analysis; format: in vivo
Experimental: as §1, §2

[6] = Tolerability of oral N-PPG in Study A and B mice (body weight, vitality, side effects); format: in vivo, mouse
Experimental: as §1, §2

PRODH [7] = target: T2, PRODH; experiment: Study B: oral N-PPG in Htt-mut (R6/2) mice, whole brain PRODH protein; format: in vivo; settings: HT mice, 50 mg/kg/day orally x 9 days vs saline, compared with wildtype
Experimental: as §2

YME1L1 [8] = experiment: Study B: brain YME1L1 in Htt-mut and wildtype mice; format: in vivo, mouse; settings: 50 mg/kg/day oral N-PPG, 9 days
Experimental: as §2

[9] = system: Htt-mut mouse brain transcriptome; experiment: Study B: whole brain RNA transcriptome (RNAseq) of Htt-mut mice; format: in vivo
Experimental: as §2

[10] = Brain penetration of orally administered N-PPG; format: in vivo; settings: oral, repeated administration; inferred from brain UPRmt induction
[11] = over-representation analysis, FDR p<0.05

PRODH enzyme inhibiting potency relative to N-PPG [2]: comparable
SMILES: O=C1CCC(C(=O)O)O1 (centres unmarked) [5-oxo]
activation of UPRmt and induction of mitohormesis [1]: do not activate the UPRmt or induce mitohormesis

SMILES: C#CCNCC(=O)O [N-PPG, N-propargylglycine]
reduction in mean PRODH expression (PRODH signals normalized to β-actin or Rieske) (PRODH [3]; wildtype B6/CBA mice, oral 50 mg/kg N-PPG for nine days vs saline): at least 30% | normalized mean PRODH expression levels (PRODH [3]; wildtype mice, oral saline, 50, 100, 150 or 200 mg/kg N-PPG): dose-dependent decline | mitochondrial YME1L1 mRNA and protein expression (YME1L1 [4]; WT mice, 50 mg/kg dose, brain): increased | induction of mitochondrial protease YME1L1 transcripts relative to housekeeping transcripts (YME1L1 [4]; single mouse brain, 200 mg/kg oral N-PPG, 9 days, RT-PCR): 1.4 fold | increase in mean YME1L1 expression (signals normalized to β-actin or Rieske) (YME1L1 [4]; wildtype mice, 50 mg/kg oral N-PPG vs saline, whole brain lysates, western blot): ~ 40% | induction of chaperone HSP-60 transcripts relative to housekeeping transcripts (HSP-60): 1.7 fold | whole brain transcriptome pathway analysis ([5]; WT vs W mice, RNAseq, FDR p<0.05): upregulation of pathways (GO, Reactome) specifically regulating neuronal cell functions | genes differentially expressed (p<0.05) between N-PPG treated and saline treated brains ([5]; five WT (50 mg/kg, one 100 mg/kg, oral 9 days) vs four W brains, RNAseq): 1324 genes | upregulated genes among the differentially expressed genes ([5]; five WT vs four W brains, RNAseq): 841 genes | Reactome neural pathways encoded by upregulated genes [5, 11]: 7 | enriched Gene Ontology (GO) pathways encoded by upregulated genes [5, 11]: 77 | health of mice at sacrifice (repeated body weight and vitality measurements) ([6]; all Study A and B mice, week 7): healthy and asymptomatic | systemic or neurologic side effects ([6]; mice, daily oral 50 to 200 mg/kg N-PPG, 9 days): without any systemic or neurologic side effects; also recorded: without causing any adverse systemic or neurologic consequences | brain PRODH protein decay in Htt-mut mice (PRODH [7]): partial mitochondrial PRODH protein degradation | brain YME1L1 in Htt-mut and wildtype mice (YME1L1 [8]): YME1L1 upregulation | normalization of deranged whole brain transcriptome of Htt-mut mice ([9]; HT mice, 50 mg/kg/day orally x 9 days vs untreated H, includes TH, DRD1, ADORA2A, 50 mg/kg/day): partial-to complete normalization; also recorded: normalizes HT transcriptomes away from Htt-mut (H) and more toward wildtype (W) | differentially expressed genes between WT, HT, W and H brains ([9]; Study B, RNAseq, FDR p<0.05): 622 genes | Htt-mut treated mice with full transcriptome normalization ([9]; four HT mice, 50 mg/kg/day orally x 9 days): one of the four | crossing of the blood-brain-barrier [10]: capable of crossing the mammalian blood-brain-barrier | activation of UPRmt and induction of mitohormesis [1]: activate the mitochondrial unfolded protein response (UPRmt) and induce mitohormesis

PRODH enzyme inhibiting potency relative to N-PPG [2]: comparable
SMILES: O=C(O)C1NCCS1 (centres unmarked) [T2C]
activation of UPRmt and induction of mitohormesis [1]: do not activate the UPRmt or induce mitohormesis

PRODH enzyme inhibiting potency relative to N-PPG [2]: comparable
SMILES: O=C(O)C1CCCO1 (centres unmarked) [THFA]
activation of UPRmt and induction of mitohormesis [1]: do not activate the UPRmt or induce mitohormesis
